# US20250313574A1, “SIALIC ACID DERIVATIVES AND METHODS OF USING SAME” (EISAI R&D MANAGEMENT CO., LTD., priority 2022, published 2025)
# Molecular target: Recombinant human CD33 protein (Homo sapiens (Human), UniProt P20138)
# Assay: CD33 competitive binding assay for HTS drug screen (fluorescent multivalent sialic acid probe)
# Protocol: This is a competitive binding assay that uses recombinant CD33 immobilized to a plate and a fluorescently-labeled multivalent sialic acid analog as a probe. Binding of drug to the site on CD33 to which sialic acid binds is detected by reduced binding of the fluorescent probe. Recombinant human CD33 protein (for example Acro Biosystems cat #CD3-H5257) was added at a concentration of 10 μg/ml in 20 mM acetate buffer (pH5.5) to a black plastic plate (Corning 4510) and allowed to incubate overnight at 4° C. The next day, the wells were washed 3 times with PBS containing 0.02% Tween-20. This was followed by a 30-minute incubation with PBS containing 0.2% Tween-20 and 0.5% BSA to block non-specific binding to the well. This buffer is removed and replaced with 10 μl of the same buffer, which is also used as the assay buffer. The fluorescent multivalent sialic acid probe was prepared as a 4× concentration as follows. A biotinylated sialic acid analog A-375 was mixed with biotin-4-Fluorescein isothiocyanate (biotin-4-FITC) at a 3:1 molar ratio with final concentrations (4× stock) of 60 μM A-375 and 20 μM biotin-4-FITC. After these were mixed, 20 μM of neutravidin was added, which should form complexes consisting of neutravidin, fluorescein and sialic acid with an average complex consisting of 1 neutravidin, 1 FITC and 3 sialic acid analogs. The multimerization of the sialic acid analog is critical to the assay and improves the affinity of the sialic acid analog several orders of magnitude. A test compound, for example A-001, is added at 5 μl to the 10 μl assay buffer already in the well. After a brief incubation, 5 μl of the 4× stock solution of sialic acid complexes was added. The final concentration of the complexes was therefore 5 μM neutravidin, 15 μM A-375 and 5 μM FITC. The plate was incubated at room temperature for 30 mins and then washed with PBS containing 0.2% Tween-20. Binding of the sialic acid complex is very stable, with an off-rate of several days. Bound complex was then detected using a standard plate reader to quantify FITC fluorescence.
# Chain of Recombinant human CD33 protein (P20138 18-259): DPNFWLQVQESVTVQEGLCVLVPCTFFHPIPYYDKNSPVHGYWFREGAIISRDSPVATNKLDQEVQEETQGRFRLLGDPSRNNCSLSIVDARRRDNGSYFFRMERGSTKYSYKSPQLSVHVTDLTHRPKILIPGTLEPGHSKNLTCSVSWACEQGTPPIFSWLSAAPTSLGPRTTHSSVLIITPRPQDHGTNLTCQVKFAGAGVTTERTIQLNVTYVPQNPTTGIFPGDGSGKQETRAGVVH
row,Compound,EC50 [nM]
1,CC(=O)N[C@H]1[C@H]([C@H](O)[C@H](O)CNC(=O)c2cc(C)c(O)c(C)c2)O[C@@](CCN2CCOC[C@@]23CCN(C(=O)COCC(C)C)C3)(C(=O)O)C[C@@H]1O [A-083],1000
2,"CC(=O)N[C@H]1[C@H]([C@H](O)[C@H](O)CNC(=O)c2cc(C)c(O)c(C)c2)O[C@@](C[C@@H]2COC[C@@]3(CCN(C(=O)OC(C)(C)C)C3)N2)(C(=O)O)C[C@@H]1O [A-226, (2R,4S,5R,6R)-5-acetamido-2-(((5S,7R)-2-(tert-butoxycarbonyl)-9-oxa-2,6-diazaspiro[4.5]decan-7-yl)methyl)-6-((1R,2R)-1,2-dihydroxy-3-(4-hydroxy-3,5-dimethylbenzamido)propyl)-4-hydroxytetrahydro-2H-pyran-2-carboxylic acid]",3870
3,CC(=O)N[C@H]1[C@H]([C@H](O)[C@H](O)CNC(=O)c2cc(C)c(O)c(C)c2)O[C@@](CCN2CCCCC23CCN(C(=O)OC(C)(C)C)C3)(C(=O)O)C[C@@H]1O (stereo partly drawn) [A-022],2930
4,CC(=O)N[C@H]1[C@H]([C@H](O)[C@H](O)CNC(=O)c2cc(C)c(O)c(C)c2)O[C@@](C/C=C/C2CCN(c3cc(N(C)C)ccn3)C2)(C(=O)O)C[C@@H]1O (stereo partly drawn) [A-199],9860
5,"Cc1cc(C(=O)NCC(O)C[C@@H]2O[C@@](C/C=C/C3CCN(C(=O)OC(C)(C)C)C3)(C(=O)O)CCC2C)cc(C)c1O (single isomer, unassigned) [A-210]",21400
6,CC(=O)N[C@H]1[C@H]([C@H](O)[C@H](O)CNC(=O)c2cc(C)c(O)c(C)c2)O[C@@](CC2OC(C)(C)O[C@H]2c2ccc3c(c2)N(C(=O)OC(C)(C)C)CC3)(C(=O)O)C[C@@H]1O (stereo partly drawn) [A-308],2940
7,COC(C)C(=O)N1CC[C@@]2(COCCN2CC[C@]2(C(=O)O)C[C@H](O)[C@@H](NC(C)=O)[C@H]([C@H](O)[C@H](O)CNC(=O)c3cc(C)c(O)c(C)c3)O2)C1 (stereo partly drawn) [A-082],> 5000
8,CC(=O)N[C@H]1[C@H]([C@H](O)[C@H](O)CNC(=O)c2cc(C)c(O)c(C)c2)O[C@@](CCN2CCOC[C@@]23CCN(C(=O)COC(C)C)C3)(C(=O)O)C[C@@H]1O [A-084],1560
9,CC(=O)N[C@H]1[C@H]([C@H](O)[C@H](O)CNC(=O)c2cc(C)c(O)c(C)c2)O[C@@](CCN2CCOC[C@@]23CCN(C(=O)c2ccco2)C3)(C(=O)O)C[C@@H]1O [A-093],892
10,Cc1cc(C(=O)NC[C@@H](O)C[C@H]2CC[C@@H](C)[C@](CCN3CCOC[C@@]34CCN(C(=O)OC(C)(C)C)C4)(C(=O)O)O2)cc2cc[nH]c12 [A-217],> 20000
11,CC(=O)N[C@H]1[C@H]([C@H](O)[C@H](O)CNC(=O)c2cc(C)c(O)c(C)c2)O[C@@](CCN2CCOC[C@@]23CCN(C(=O)COC(C)(C)C)C3)(C(=O)O)C[C@@H]1O [A-090],3120
12,CC(=O)N[C@H]1[C@H]([C@H](O)[C@H](O)CNC(=O)c2cc(C)c(O)c(C)c2)O[C@@](CCN2CCOCC23CCN(C(=O)OC(C)(C)C)CC3)(C(=O)O)C[C@@H]1O [A-007],811
13,CC(=O)N[C@H]1[C@H]([C@H](O)[C@H](O)CNC(=O)c2cc(C)c(O)c(C)c2)O[C@@](CCN2CCN(C)C[C@]23CCN(C(=O)NC(C)(C)C)C3)(C(=O)O)C[C@@H]1O [A-106],1950

# These reach a lower EC50. Values come first.
row,EC50 [nM],Compound
1,580,CC(=O)N[C@H]1[C@H]([C@H](O)[C@H](O)CNC(=O)c2cc(C)c(O)c(C)c2)O[C@@](CCN2CCOC[C@@]23CCN(c2cc(N(C)C)ccn2)C3)(C(=O)O)C[C@@H]1O [A-041]
2,538,CC(=O)N[C@H]1[C@H]([C@H](O)[C@H](O)CNC(=O)c2cc(C)c(O)c(C)c2)O[C@@](CCN2CCOCC23CN(C(=O)OC(C)(C)C)C3)(C(=O)O)C[C@@H]1O [A-008]
3,452,CC(=O)N[C@H]1[C@H]([C@H](O)[C@H](O)CNC(=O)c2cc(C)c(O)c(C)c2)O[C@@](CCN2CCOC[C@@]23CCN(C(=O)C2CCOCC2)C3)(C(=O)O)C[C@@H]1O [A-091]
4,291,CC(=O)N[C@H]1[C@H]([C@H](O)[C@H](O)CNC(=O)c2cc(C)c(O)c(C)c2)O[C@@](CCN2CCOC[C@@]23CCN(C(=O)C(c2ccccc2)C2CCCCC2)C3)(C(=O)O)C[C@@H]1O (stereo partly drawn) [A-089]
5,283,CC(=O)N[C@H]1[C@H]([C@H](O)[C@H](O)CNC(=O)c2cc(C)c(O)c(C)c2)O[C@@](CCN2CCOC[C@@]23CCN(C(=O)C2(C)CCCO2)C3)(C(=O)O)C[C@@H]1O (stereo partly drawn) [A-077]
6,230,CC(=O)N[C@H]1[C@H]([C@H](O)[C@H](O)CNC(=O)c2cc(C)c(O)c(C)c2)O[C@@](CCN2CCOC[C@@]23CCN(C(=O)CC(C)(C)C)C3)(C(=O)O)C[C@@H]1O [A-072]
7,181,CC(=O)N[C@H]1[C@H]([C@H](O)[C@H](O)CNC(=O)c2cc(C)c(O)c(C)c2)O[C@@](C/C=C/C2(O)CCN(C(=O)OC(C)(C)C)C2)(C(=O)O)C[C@@H]1O (stereo partly drawn) [A-197]
8,148,CC(=O)N[C@H]1[C@H]([C@H](O)[C@H](O)CNC(=O)c2cc(C)c(O)c(C)c2)O[C@@](C/C=C/C2(F)CCN(C(=O)OC(C)(C)C)C2)(C(=O)O)C[C@@H]1O (stereo partly drawn) [A-198]
9,101,CC(=O)N[C@H]1[C@H]([C@H](O)[C@H](O)CNC(=O)c2cc(C)c(O)c(C)c2)O[C@@](CCN2CCOC[C@@]23CCN(C(=O)CC(C)c2ccccc2)C3)(C(=O)O)C[C@@H]1O (stereo partly drawn) [A-068]
10,99,CC(=O)N[C@H]1[C@H]([C@H](O)[C@H](O)CNC(=O)c2cc(C)c(O)c(C)c2)O[C@@](CCN2CCOC[C@@]23CCN(C(=O)C2CCC(F)(F)CC2)C3)(C(=O)O)C[C@@H]1O [A-075]
11,95,CC(=O)N[C@H]1[C@H]([C@H](O)[C@H](O)CNC(=O)c2cc(C)c(O)c(C)c2)O[C@@](CCN2CCOC[C@@]23CCN(c2cc(C(F)(F)F)ccn2)C3)(C(=O)O)C[C@@H]1O [A-039]
12,63,C=C(C)c1ccc(C(C)(C)NC(=O)N2CC[C@@]3(COCCN3CC[C@]3(C(=O)O)C[C@H](O)[C@@H](NC(C)=O)[C@H]([C@H](O)[C@H](O)CNC(=O)c4cc(C)c(O)c(C)c4)O3)C2)cc1 [A-046]
13,53,CC(=O)N[C@H]1[C@H]([C@H](O)[C@H](O)CNC(=O)c2cc(C)c(O)c(C)c2)O[C@@](CCN2CCOC[C@@]23CCN(c2cc(C)ccn2)C3)(C(=O)O)C[C@@H]1O [A-038]
14,28,CC(=O)N[C@H]1[C@H]([C@H](O)[C@H](O)CNC(=O)c2cc(C)c(O)c(C)c2)O[C@@](CCN2CCC[C@@]23CCN(C(=O)OC(C)(C)C)C3)(C(=O)O)C[C@@H]1O [A-019]
15,26,CC(=O)N[C@H]1[C@H]([C@H](O)[C@H](O)CNC(=O)c2cc(C)c(O)c(C)c2)O[C@@](CCN2CCNC[C@@]23CCN(C(=O)NC(C)(C)C)C3)(C(=O)O)C[C@@H]1O [A-108]
16,20,CC(=O)N[C@H]1[C@H]([C@H](O)[C@H](O)CNC(=O)c2cc(C)c(O)c(C)c2)O[C@@](CCN2CCOC[C@@]23CCN(C(=O)NC(C)(C)C(C)C)C3)(C(=O)O)C[C@@H]1O [A-050]
17,8,CC(=O)N[C@H]1[C@H]([C@H](O)[C@H](O)CNC(=O)c2cc(C)c(O)c(C)c2)O[C@@](CCN2CCN(C)C[C@@]23CCN(C(=O)NC(C)(C)C)C3)(C(=O)O)C[C@@H]1O [A-105]
